Results from the NIST ThermoML archive (doi:10.1021/acs.jced.7b00717).

Key:
[1] = xn = mol fraction of the nth substance listed; conditions: Liquid, dynamic ligfht scattering
[2] = refractive index (other wavelength) (dimensionless); xn = mol fraction of the nth substance listed; conditions: Liquid, Wavelength=532 nm

OCC(O)CO [glycerol] + O
[1]
Conditions	binary diffusion coefficient [m2/s]
322.99 K, x1 = 0.5	2.54e-10
323.07 K, x1 = 0.699	1.4e-10
323.15 K, x1 = 0.299	5.6e-10
347.98 K, x1 = 0.5	5.69e-10
348.19 K, x1 = 0.299	1.04e-09
351.63 K, x1 = 0.699	3.69e-10
372.92 K, x1 = 0.699	6.93e-10
373.17 K, x1 = 0.5	1.04e-09
373.3 K, x1 = 0.299	1.73e-09
397.7 K, x1 = 0.699	1.45e-09
398.05 K, x1 = 0.299	2.84e-09
398.12 K, x1 = 0.5	1.9e-09
422.61 K, x1 = 0.299	4.12e-09
423.15 K, x1 = 0.5	2.87e-09
448.21 K, x1 = 0.5	4.8e-09

[2]
Conditions	refractive index
295.65 K, Standard Abbe refractometry, x1 = 0.299	1.422
296.15 K, beam displacement method, x1 = 0.699	1.461
314.15 K, Standard Abbe refractometry, x1 = 0.299	1.42
322.99 K, beam displacement method, x1 = 0.5	1.436
323.15 K, beam displacement method, x1 = 0.299	1.417
331.65 K, Standard Abbe refractometry, x1 = 0.299	1.415
347.96 K, beam displacement method, x1 = 0.5	1.43
348.15 K, beam displacement method, x1 = 0.299	1.411
348.45 K, beam displacement method, x1 = 0.699	1.445
373.05 K, beam displacement method, x1 = 0.699	1.438
373.16 K, beam displacement method, x1 = 0.299	1.403
373.23 K, beam displacement method, x1 = 0.5	1.423
398.11 K, beam displacement method, x1 = 0.5	1.417
398.15 K, beam displacement method, x1 = 0.299	1.396
398.25 K, beam displacement method, x1 = 0.699	1.431
421.85 K, beam displacement method, x1 = 0.699	1.424
423.15 K, beam displacement method, x1 = 0.5	1.409
